In US8067395B2, “Inhibitors of tyrosine kinases and uses thereof” (Pharmacyclics, Inc., priority 2006, dated 2011) one finds Ki data, which are given here for 23 compounds.

The test has as its target Btk (Homo sapiens, UniProt Q06187). In words: Btk TR-FRET kinase inhibition assay. The format is biochemical. Particulars: pH 7.4, ATP at the Km for the kinase, 1 μM peptide substrate, [Btk]total=0.5 nM, read-out: Btk-TRFRET (Ki). As for the experimental part:
Suitable in vitro assays for measuring kinase activity and the inhibition thereof by compounds are known (e.g., see Kuzmic et al. Anal. Biochem. 2000, 286, 45-50).
The following protocol represents an assay for determination of inhibition of kinases under physiological conditions (pH 7.4). Kinase activity was determined using a time-resolved fluorescence resonance energy transfer (TR-FRET) methodology. Measurements were performed in a reaction volume of 50 μL using 96-well assay plates. Kinase enzyme, inhibitor, ATP (at the Km for the kinase), and 1 μM peptide substrate (Biotin-AVLESEEELYSSARQ-NH2) were incubated in a reaction buffer composed of 20 mM Tris, 50 mM NaCl, MgCl2 (5-25 mM depending on the kinase), 1 mM DTT, 0.1 mM EDTA, 0.01% bovine serum albumin, 0.005% Tween-20, and 10% DMSO at pH 7.4 for one hour. The reaction was quenched by the addition of 1.2 equivalents of EDTA (relative to Mg^2+) in 25 μL of 1× Lance buffer (Perkin-Elmer). Streptavidin-APC (Perkin-Elmer) and Eu-labeled p-Tyr100 antibody (Perkin-Elmer) in 1× Lance buffer were added in a 25 μL volume to give final concentrations of 100 nM and 2.5 nM, respectively, and the mixture was allowed to incubate for one hour. The TR-FRET signal was measured on a multimode plate reader with an excitation wavelength of 330 nm and detection wavelengths of 615 nm and 665 nm. Activity was determined by the ratio of the fluorescence at 665 nm to that at 615 nm. For each compound, enzyme activity was measured at various concentrations of compound. Negative control reactions were performed in the absence of inhibitor in replicates of six, and two no-enzyme controls were used to determine baseline fluorescence levels. Inhibition constants were obtained using the program BatchKi (Kuzmic et al. Anal. Biochem. 2000, 286, 45-50). IC50s were obtained according to this equation: IC50={Ki(app)/(1+[ATP]/Km^ATP)}+[E]total/2; for all kinases, [ATP]=Km^ATP, [Btk]total=0.5 nM and [Lck]total=6 nM.

Molecules are shown by their SMILES. Where only a bound is given, the exact number is not on record here.

Btk, sequence (Q06187 whole entry): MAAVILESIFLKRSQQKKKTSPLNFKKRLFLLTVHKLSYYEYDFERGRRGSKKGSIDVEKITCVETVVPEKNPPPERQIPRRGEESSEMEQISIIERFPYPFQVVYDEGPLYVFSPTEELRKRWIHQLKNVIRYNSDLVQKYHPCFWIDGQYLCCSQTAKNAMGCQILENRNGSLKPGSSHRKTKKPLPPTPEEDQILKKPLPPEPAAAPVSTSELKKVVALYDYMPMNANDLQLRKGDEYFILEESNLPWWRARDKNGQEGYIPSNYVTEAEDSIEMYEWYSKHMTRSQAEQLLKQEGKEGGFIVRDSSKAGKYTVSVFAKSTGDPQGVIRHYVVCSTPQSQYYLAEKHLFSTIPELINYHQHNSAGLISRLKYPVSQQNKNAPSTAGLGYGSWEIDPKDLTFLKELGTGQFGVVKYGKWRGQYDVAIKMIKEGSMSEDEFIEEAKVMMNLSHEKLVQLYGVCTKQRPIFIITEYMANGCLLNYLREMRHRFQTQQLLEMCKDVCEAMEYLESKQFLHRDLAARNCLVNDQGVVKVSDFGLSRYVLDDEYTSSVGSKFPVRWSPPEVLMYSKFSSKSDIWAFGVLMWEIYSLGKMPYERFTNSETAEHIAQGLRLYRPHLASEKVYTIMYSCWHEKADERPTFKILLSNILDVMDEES

`Cc1cc(F)ccc1Nc1nc2ccc3c(C)c(C=CCN4CCN(c5ncccn5)CC4)[nH]c(=O)c3c2n1C` [Compound 27, 2-(4-fluoro-2-methylphenylamino)-1,6-dimethyl-7-[3-(N-(pyrimidin-2-yl)-piperazin-1-yl)-propenyl]-1,8-dihydro-imidazo[4,5-h]isoquinolin-9-one]: the Ki is less than 100 nM. In the case of `Cc1cc(F)ccc1Nc1nc2ccc3c(C)c(/C=C/CN4CCP(=O)(CC5CC5)CC4)[nH]c(=O)c3c2n1C` [Compound 13, 2-(4-fluoro-2-methylphenylamino)-1,6-dimethyl-7-{3-[4-(cyclopropylmethyl)-4-oxo-4λ^5-[1,4]azaphosphinan-1-yl]-propenyl}-1,8-dihydro-imidazo[4,5-h]isoquinolin-9-one], the Ki was less than 100 nM. Next, `C#CCN(C)CC=Cc1[nH]c(=O)c2c(ccc3nc(Nc4ccc(F)cc4C)n(C)c32)c1C` [Compound 43, 2-(4-fluoro-2-methylphenylamino)-1,6-dimethyl-7-[3-(N-methyl-N-(prop-2-ynyl)amino)prop-1-enyl]-1,8-dihydro-imidazo[4,5-h]isoquinolin-9-one]: less than 100 nM. For `Cc1c(C(O)C#Cc2ccccc2)[nH]c(=O)c2c1ccc1nc(Nc3c(Cl)cccc3Cl)n(C)c12` (centres unmarked) [Compound 41, 2-(2,6-dichlorophenylamino)-1,6-dimethyl-7-(1-hydroxy-3-phenylprop-2-yn-1-yl)-1,8-dihydro-imidazo[4,5-h]isoquinolin-9-one], the Ki lay in the range of 100 to 1000 nM.

Turning to `Cc1c(C(O)C(F)(F)c2cn(Cc3ccccc3)nn2)[nH]c(=O)c2c1ccc1nc(Nc3c(Cl)cccc3Cl)n(C)c12` (centres unmarked) [Compound 40, 2-(2,6-dichlorophenylamino)-1,6-dimethyl-7-[2,2-difluoro-1-hydroxy-2-(N-phenylmethyl-[1,2,3]triazol-4-yl)-ethyl]-1,8-dihydro-imidazo[4,5-h]isoquinolin-9-one], the Ki was greater than 1000 nM. Next, `C#CCN(C)CC=Cc1[nH]c(=O)c2c(ccc3nc(Nc4c(Cl)cccc4Cl)n(C)c32)c1C` [Compound 42, 2-(2,6-dichlorophenylamino)-1,6-dimethyl-7-[3-(N-methyl-N-(prop-2-ynyl)amino)prop-1-enyl]-1,8-dihydro-imidazo[4,5-h]isoquinolin-9-one]: less than 100 nM; `Cc1cc(Cl)cc(Cl)c1Nc1nc2ccc3c(C)c(CCCN4CCP(=O)(c5ccccc5)CC4)[nH]c(=O)c3c2n1C` [Compound 8, 2-(2,4-dichloro-6-methylphenylamino)-1,6-dimethyl-7-[3-(4-oxo-4-phenyl-4λ^5-[1,4]azaphosphinan-1-yl)-propyl]-1,8-dihydro-imidazo[4,5-h]isoquinolin-9-one]: 100 to 1000 nM; `Cc1cc(F)ccc1Nc1nc2ccc3c(C)c(C=CCN4CCN(C(=O)c5ccccc5)CC4)[nH]c(=O)c3c2n1C` [Compound 22, 2-(4-fluoro-2-methylphenylamino)-1,6-dimethyl-7-[3-(N-phenylcarbonylpiperazin-1-yl)-propenyl]-1,8-dihydro-imidazo[4,5-h]isoquinolin-9-one]: less than 100 nM. Next, `Cc1cc(F)ccc1Nc1nc2ccc3c(C)c(C=CCN4CCN(S(=O)(=O)c5ccccc5)CC4)[nH]c(=O)c3c2n1C` [Compound 29, 2-(4-fluoro-2-methylphenylamino)-1,6-dimethyl-7-[3-(N-phenylsulfonylpiperazin-1-yl)-propenyl]-1,8-dihydro-imidazo[4,5-h]isoquinolin-9-one]: less than 100 nM; `Cc1cc(F)ccc1Nc1nc2ccc3c(C)c(/C=C/CNC(=O)[C@H]4CC[P@@](=O)(c5ccccc5)CC4)[nH]c(=O)c3c2n1C` [Compound 17, 2-(4-fluoro-2-methyl-phenylamino)-1,6-dimethyl-7-{3-[(1-oxo-1-cis-phenyl-1λ^5-phosphinan-4-yl)-carbonylamino]propenyl}-1,8-dihydro-imidazo[4,5-h]isoquinolin-9-one]: less than 100 nM; `Cc1cc(F)ccc1Nc1nc2ccc3c(C)c(C=CCN4CCN(C(=O)C(C)C)CC4)[nH]c(=O)c3c2n1C` [Compound 36, 2-(4-fluoro-2-methylphenylamino)-1,6-dimethyl-7-[3-(N-isopropylcarbonylpiperazin-1-yl)-propenyl]-1,8-dihydro-imidazo[4,5-h]isoquinolin-9-one]: less than 100 nM. Then `Cc1c(/C=N/O)[nH]c(=O)c2c1ccc1nc(Nc3c(Cl)cccc3Cl)n(C)c12` [Compound 44, 2-(2,6-dichlorophenylamino)-1,6-dimethyl-9-oxo-8,9-dihydro-1H-imidazo[4,5-h]isoquinoline-7-carbaldehyde oxime], with less than 100 nM; and `Cc1cc(F)ccc1Nc1nc2ccc3c(C)c(C=CCN4CCP(=O)(c5ccc(F)cc5)CC4)[nH]c(=O)c3c2n1C` [Compound 10, 2-(4-fluoro-2-methylphenylamino)-1,6-dimethyl-7-[3-(4-oxo-4-(4-fluorophenyl)-4λ^5-[1,4]azaphosphinan-1-yl)-propenyl]-1,8-dihydro-imidazo[4,5-h]isoquinolin-9-one], with less than 100 nM; and `Cc1cc(F)ccc1Nc1nc2ccc3c(C)c(C=CCNC(=O)C4CCP(=O)(c5ccccc5)CC4)[nH]c(=O)c3c2n1C` (stereo not drawn) [Compound 16, 2-(4-fluoro-2-methylphenylamino)-1,6-dimethyl-7-{3-[(1-oxo-1-trans-phenyl-1λ^5-phosphinan-4-yl)-carbonylamino]propenyl}-1,8-dihydro-imidazo[4,5-h]isoquinolin-9-one], with less than 100 nM.

Consider `CCC[C@@H](C=CS(=O)(=O)c1ccccc1)NC(=O)Cc1c(C)[nH]c(=O)c2c1ccc1nc(Nc3ccc(F)cc3C)n(C)c12` [Compound 51, (S)-2-(4-fluoro-2-methylphenylamino)-1,7-dimethyl-6-{N-[1-(phenylsulfonyl)hex-1-en-3-yl]-amino-2-oxoethyl}-1,8-dihydro-imidazo[4,5-h]isoquinolin-9-one], for which the Ki lay within 100 to 1000 nM. On to `Cc1cc(F)ccc1Nc1nc2ccc3c(C)c(/C=C/CN4CCN(S(C)(=O)=O)CC4)[nH]c(=O)c3c2n1C` [Compound 24, 2-(4-fluoro-2-methylphenylamino)-1,6-dimethyl-7-[3-(N-methylsulfonylpiperazin-1-yl)-propenyl]-1,8-dihydro-imidazo[4,5-h]isoquinolin-9-one], for which the inhibition constant Ki was less than 100 nM. On to `Cc1cc(F)ccc1Nc1nc2ccc3c(C)c(C=CCN4CCN(c5ccc(Cl)cc5)CC4)[nH]c(=O)c3c2n1C` [Compound 20, 2-(4-fluoro-2-methylphenylamino)-1,6-dimethyl-7-[3-(N-(4-chlorophenyl)-piperazin-1-yl)-propenyl]-1,8-dihydro-imidazo[4,5-h]isoquinolin-9-one], for which the Ki is less than 100 nM. Next, `Cc1c(C=CCN2CCP(C)(=O)CC2)[nH]c(=O)c2c1ccc1nc(Nc3c(Cl)cccc3Cl)n(C)c12` [Compound 2, 2-(2,6-dichloro-phenylamino)-1,6-dimethyl-7-[3-(4-methyl-4-oxo-4λ^5[1,4]azaphosphinan-1-yl)-propenyl]-1,8-dihydro-imidazo[4,5-h]isoquinolin-9-one]: less than 100 nM; `Cc1cc(F)ccc1Nc1nc2ccc3c(C)c(/C=C/CN4CCP(C)(=O)CC4)[nH]c(=O)c3c2n1C` [Compound 1, 2-(4-fluoro-2-methylphenylamino)-1,6-dimethyl-7-[3-(4-methyl-4-oxo-4λ^5[1,4]azaphosphinan-1-yl)-propenyl]-1,8-dihydro-imidazo[4,5-h]isoquinolin-9-one]: less than 100 nM; `Cc1c(C=NNC(=O)c2cccnc2)[nH]c(=O)c2c1ccc1nc(Nc3c(Cl)cccc3Cl)n(C)c12` [Compound 48, pyridine-3-carboxylic acid [2-(2,6-dichlorophenylamino)-1,6-dimethyl-9-oxo-8,9-dihydro-1H-imidazo[4,5-h]isoquinolin-7-ylmethylene]-hydrazide]: 100 to 1000 nM. Then `Cc1c(C=CCN2CCN(c3ccccc3)CC2)[nH]c(=O)c2c1ccc1nc(Nc3c(Cl)cccc3Cl)n(C)c12` [Compound 18, 2-(2,6-dichlorophenylamino)-1,6-dimethyl-7-[3-(N-phenylpiperazin-1-yl)-propenyl]-1,8-dihydro-imidazo[4,5-h]isoquinolin-9-one], with less than 100 nM; and `Cc1cc(F)ccc1Nc1nc2ccc3c(C)c(/C=C/CN4CCP(=O)(c5ccccc5)CC4)[nH]c(=O)c3c2n1C` [Compound 3, 2-(4-fluoro-2-methylphenylamino)-1,6-dimethyl-7-[3-(4-oxo-4-phenyl-4λ^5-[1,4]azaphosphinan-1-yl)-propenyl]-1,8-dihydro-imidazo[4,5-h]isoquinolin-9-one], with less than 100 nM.

With `COc1ccccc1C(=O)NN=Cc1[nH]c(=O)c2c(ccc3nc(Nc4c(Cl)cccc4Cl)n(C)c32)c1C` [Compound 49, 2-methoxy-benzoic acid [2-(2,6-dichlorophenylamino)-1,6-dimethyl-9-oxo-8,9-dihydro-1H-imidazo[4,5-h]isoquinolin-7-ylmethylene]-hydrazide], the Ki is 100 to 1000 nM.
